Results taken from patent US5128359A, “Benzimidazole and azabenzimidazole derivatives which are thromboxane receptor antagonists, their methods of preparation” (Laboratoires UPSA, priority 1990, dated 1992).

Biological target: T1, TXA2 receptors of human platelets (Homo sapiens, UniProt P21731)
T1 construct: Human platelets incubate in the presence of a single concentration; endogenous in cells; host or cells: human platelets
T1 sequence (P21731 1-343): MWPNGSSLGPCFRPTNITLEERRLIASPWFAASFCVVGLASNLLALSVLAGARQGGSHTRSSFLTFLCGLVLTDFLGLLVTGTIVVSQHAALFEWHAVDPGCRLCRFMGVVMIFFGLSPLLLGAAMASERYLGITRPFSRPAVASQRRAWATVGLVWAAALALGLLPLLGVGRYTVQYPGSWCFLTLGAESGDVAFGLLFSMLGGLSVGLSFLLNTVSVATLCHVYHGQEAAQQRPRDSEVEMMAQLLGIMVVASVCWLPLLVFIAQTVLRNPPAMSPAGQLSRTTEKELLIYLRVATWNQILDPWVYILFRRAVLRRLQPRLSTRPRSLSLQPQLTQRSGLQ
Experiment: displacement of radioligand [^125 I]PTA-OH specifically bound to the TXA2 receptors of human platelets
Format: binding
Conditions: for inhibition at 10 µM / inhibition at 0.1 µM: 0.5 h, 30 minutes at 37° C; for inhibition at 10 µM: 1E-5 M competing agent, read-out: % displacement, Concentration 1E-5 M; for inhibition at 0.1 µM: 1E-7 M competing agent, read-out: % displacement, Concentration 1E-7 M; for Ki: determined according to the formula of CHENG and PRUSOFF, read-out: Ki (inhibition constant)
Experimental: The affinity of the products of the Examples described for thromboxane A2 receptors is evaluated by the technique of displacing a radioligand specifically bound to the TXA2 receptors of human platelets. […] The reaction is completed by the addition of a buffer, followed by rapid filtration through […] filters. […] The results are expressed, for the doses tested, as the percentage displacement of the radioligand specifically bound to the TXA2 receptors of human platelets.

SMILES | inhibition at 10 µM | inhibition at 0.1 µM | Ki
CC(C)(CC(=O)O)Cc1nc2cc(Cl)cnc2n1Cc1ccc(Cl)cc1 [Example 92] | 100% | 97% | 12.5 nM
CC(C)(CC(=O)O)Cc1nc2ccccc2n1Cc1cccc(C(F)(F)F)c1 [Example 71, 4-[1-(3-Trifluoromethylbenzyl)benzimidazol-2-yl]-3,3-dimethylbutanoic acid] | 100% | 49% | –
CC(C)(CC(=O)O)Cc1nc2ccccc2n1Cc1ccc(Br)cc1 [Example 69, 4-[1-(4 Bromobenzyl)benzimidazol-2-yl]-3,3-dimethylbutanoic acid] | 96% | 86% | 15.8 nM
CC(C)(CC(=O)O)Cc1nc2cc(Cl)ccc2n1Cc1ccc(Br)cc1F [Example 135, 4-[1-(2-Fluoro-4-bromobenzyl)-5-chlorobenzimidazol-2-yl]3,3-dimethylbutanoic acid] | 95% | 74% | –
CC(C)(CC(=O)O)Cc1nc2cc(Cl)ccc2n1Cc1ccc(Cl)c(Cl)c1 [Example 101, 4-[1-(3,4-Dichlorobenzyl)-5-chlorobenzimidazol-2-yl]-3,3-dimethylbutanoic acid] | 92% | 71% | –
COc1ccc(Cn2c(CC(C)(C)CC(=O)O)nc3ccccc32)cc1 [Example 68, 4-[1-(4-Methoxybenzyl)benzimidazol-2-yl]-3,3-dimethybutanoic acid] | 100% | 89% | 31 nM
CC(C)(CC(=O)O)Cc1nc2ccccc2n1Cc1ccc(O)cc1 [Example 87, 4-[1-(4-Hydroxybenzyl)benzimidazol-2-yl]-3,3-dimethylbutanoic acid] | 96% | 50% | –
CC(C)(CC(=O)O)Cc1nc2ccccc2n1Cc1ccc(F)cc1 [Example 67] | 100% | 66% | –
CC(C)(CC(=O)O)Cc1nc2ccccc2n1Cc1ccc([N+](=O)[O-])cc1 [Example 81, 4-[1-(4-Nitrobenzyl)benzimidazol-2-yl]-3,3-dimethylbutanoic acid] | 100% | 83% | 60.1 nM
CC(C)(CC(=O)O)Cc1nc2cc(Cl)ccc2n1Cc1ccc(Cl)cc1F [Example 123, 4-[1-(2-Fluoro-4-chlorobenzyl)-5-chlorobenzimidazol-2-yl]3,3-dimethylbutanoic acid] | 87% | 77% | –
CC(C)(CC(=O)O)Cc1nc2ccccc2n1Cc1ccc2ccccc2c1 [Example 84, 4-[1-(Naphth-2-ylmethyl)benzimidazol-2-yl]-3,3-dimethylbutanoic acid] | 98% | 85% | –
CC(C)(CC(N)=O)Cc1nc2ccccc2n1Cc1ccc(Cl)cc1 [Example 85, 4-[1-(4-Chlorobenzyl)benzimidazol-2-yl]-3,3-dimethylbutanamide] | 90% | 7% | –
CC(C)(CC(=O)O)Cc1nc2ccccc2n1Cc1ccccc1 [Example 58, 4-(1 Benzylbenzimidazol-2-yl)-3,3-dimethylbutanoic acid] | 95% | 13% | –
O=C(O)CCCSc1nc2ccccc2n1Cc1ccc(Cl)cc1Cl [Example 64, 4-[1 (2,4-Dichlorobenzyl)benzimidazol-2-yl]mercaptobutanoic acid] | 97% | 34% | –
CC(C)(CC(=O)O)Cc1nc2cc(F)ccc2n1Cc1ccc(Br)cc1F [Example 105, 4-[1-(2-Fluoro-4-bromobenzyl)-5-fluorobenzimidazol-2-yl]-3,3-dimethylbutanoic acid] | 98% | 100% | –

More lines, now with the values ahead:

inhibition at 10 µM | inhibition at 0.1 µM | Ki | SMILES
92% | 89% | 6.02 nM | CC(C)(CC(=O)O)Cc1nc2cc(F)ccc2n1Cc1ccc(Cl)c(Cl)c1 [Example 80, 4-[1-(3,4-Dichlorobenzyl)-5-fluorobenzimidazol-2-yl]-3,3-dimethylbutanoic acid]
98% | 0% | 807 nM | O=C(O)CC1(Cc2nc3cc(F)ccc3n2Cc2ccc(Cl)cc2)CCCCC1 [Example 73, [1-[1-(4-Chlorobenzyl)-5-fluorobenzimidazol-2-yl]methylcyclohex-1-yl]aceticacid]
87% | 56% | – | CC(C)(CCC(=O)O)Cc1nc2cc(F)ccc2n1Cc1ccc(Cl)cc1 [Example 158, 5-[1-(4-Chlorobenzyl)-5-fluorobenzimidazol-2-yl]-4,4-dimethylpentanoic acid]
96% | 15% | – | O=C(O)[C@@H]1CC=CC[C@@H]1c1nc2cc(F)ccc2n1Cc1ccc(Cl)cc1 (relative stereo) [Example 161, Cis-5-[1-(4-chlorobenzyl)-5-fluorobenzimidazol-2-yl]cyclohexene-4-carboxylic acid]
100% | 98% | 13 nM | CC(C)(CC(=O)O)Cc1nc2cc(Cl)ccc2n1Cc1ccc(Br)cc1 [Example 139, 4-[1 (4-Bromobenzyl)-5-chlorobenzimidazol-2-yl]-3,3-dimethylbutanoic acid]
100% | 100% | 5 nM | CSc1ccc(Cn2c(CC(C)(C)CC(=O)O)nc3cc(F)ccc32)cc1 [Example 96, 4-[1-(4-Methylthiobenzyl)-5-fluorobenzimidazol-2-yl]-3,3-dimethylbutanoic acid]
100% | 79% | – | COc1ccc(Cn2c(CC(C)(C)CC(=O)O)nc3cc(F)ccc32)cc1 [Example 131, 4-[1-(4-Methoxybenzyl)-5 fluorobenzimidazol-2-yl]-3,3-dimethylbutanoic acid]
100% | 14% | – | CC(C)(CC(=O)O)Cc1nc2cc(Cl)c(Cl)cc2n1Cc1ccc(Cl)cc1 [Example 70, 4-[1-(4-Chlorobenzyl)-5,6-dichlorobenzimidazol-2-yl]-3,3-dimethylbutanoic acid]
100% | 57% | – | CCC(C)(CC(=O)O)Cc1nc2ccccc2n1Cc1ccc(Cl)cc1 (stereo not shown) [Example 75, 4-[1-(4-Chlorobenzyl)benzimidazol-2-yl]-3-methyl-3-ethylbutanoic acid]
82% | 61% | – | CC(C)(CC(=O)O)Cc1nc2cc(Cl)ccc2n1Cc1ccc(S(C)(=O)=O)cc1 [Example 119, 4-[1-(4-Methylsulfonylbenzyl)-5-chlorobenzimidazol-2-yl]-3,3-dimethylbutanoic acid]
100% | 37% | – | O=C(O)[C@@H]1CCC[C@H]1c1nc2cc(F)ccc2n1Cc1ccc(Cl)cc1 (relative stereo) [Example 153, Trans 2-[1-(4-chlorobenzyl)-5-fluorobenzimidazol-2-yl]cyclopentane-1-carboxylic acid]
99% | 74% | 23.2 nM | CC(C)(CC(=O)O)Cc1nc2cc(Cl)ccc2n1Cc1ccc(Cl)cc1 [Example 79, 4-[1 (4-Chlorobenzyl)-5-chlorobenzimidazol-2-yl]-3,3-dimethylbutanoic acid]
92% | 54% | – | C[S+]([O-])c1ccc(Cn2c(CC(C)(C)CC(=O)O)nc3cc(Cl)ccc32)cc1 (stereo not shown) [Example 118, 4-[1-(4-Methylsulfoxybenzyl)-5-chlorobenzimidazol-2-yl]-3,3-dimethylbutanoic acid]
93% | 91% | – | CC(C)(CC(=O)O)Cc1nc2cc(F)ccc2n1Cc1ccc2ccccc2c1 [Example 147, 4-[1(Naphth-2-ylmethyl)-5-fluorobenzimidazol-2-yl]-3,3-dimethylbutanoic acid]
100% | 85% | 31 nM | CC(C)(CC(=O)O)Cc1nc2ccccc2n1Cc1ccc(Cl)cc1 [Example 77, 4-[1-(4-Chlorobenzyl)benzimidazol-2-yl]-3,3-dimethylbutanoic acid]
100% | 71% | 42.3 nM | O=C(O)CC1(Cc2nc3cc(F)ccc3n2Cc2ccc(Cl)cc2)CCCC1 [Example 72, [10[1-(4-Chlorobenzyl)-5-fluorobenzimidazol-2-yl]-methylcyclopent-1 yl]acetic acid]
98% | 80% | – | O=C(O)CC1(Cc2nc3cc(F)ccc3n2Cc2ccc(Cl)cc2)CC1 [Example 150, [1-[1-(4-Chlorobenzyl)-5-fluorobenzimidazol-2-yl]methylcycloprop-1-yl]acetic acid]
100% | 10% | – | CC(CC(=O)O)Cc1nc2ccccc2n1Cc1ccc(Cl)cc1 (stereo not shown) [Example 83, 4-[1-(4-Chlorobenzyl)benzimidazol-2-yl]-3-methylbutanoic acid]
97% | 35% | – | CCC(CC)(CC(=O)O)Cc1nc2ccccc2n1Cc1ccc(Cl)cc1 [Example 82, 4-[1-(4-Chlorobenzyl)benzimidazol-2-yl]-3,3-diethylbutanoic acid]
